PubChem BioAssay (NCI)
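Dose response: 5 concentrations. Exposure: 48 h. Format: 96-well plates. Endpoint: linear interpolation; highest concentration if not reached. GI50 = concentration required for 50% inhibition of growth. TGI marks complete inhibition of growth.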

What was measured:
Assay in all cases: DTP human tumour cell line panel, 48 h
A498 renal = tested on: A498 renal
COLO 205 colon = tested on: COLO 205 colon
DU-145 prostate = tested on: DU-145 prostate
OVCAR-3 ovarian = tested on: OVCAR-3 ovarian
SF-268 CNS = tested on: SF-268 CNS
SN12C renal = tested on: SN12C renal
U251 CNS = tested on: U251 CNS
UO-31 renal = tested on: UO-31 renal
DLD-1 colon = tested on: DLD-1 colon
LXFL 529 NSCLC = tested on: LXFL 529 NSCLC

| SMILES | GI50 (A498 renal) | TGI (A498 renal) | GI50 (COLO 205 colon) | TGI (COLO 205 colon) | GI50 (DU-145 prostate) | TGI (DU-145 prostate) | GI50 (OVCAR-3 ovarian) | TGI (OVCAR-3 ovarian) | GI50 (SF-268 CNS) | TGI (SF-268 CNS) | GI50 (SN12C renal) | TGI (SN12C renal) | GI50 (U251 CNS) | TGI (U251 CNS) | GI50 (UO-31 renal) | TGI (UO-31 renal) | TGI (DLD-1 colon) | TGI (LXFL 529 NSCLC) |
| --- | --- | --- | --- | --- | --- | --- | --- | --- | --- | --- | --- | --- | --- | --- | --- | --- | --- | --- |
| O=c1[nH]c2c(ccc3cnccc32)c2c1CCC2 | 0.155 µM | 0.553 µM | 0.241 µM | 0.677 µM | 0.376 µM | > 100 µM | 0.277 µM | 11.7 µM | 0.333 µM | 37.3 µM | 0.365 µM | > 100 µM | 0.33 µM | > 100 µM | 0.243 µM | 0.67 µM |  |  |
| COc1cc2nc(NC3CCC3)nc(NC3CCN(C(C)C)CC3)c2cc1OC | 1.24 µM | 7.05 µM | 1.88 µM | 3.81 µM | 4.04 µM | 14.9 µM | 4.23 µM | 16.6 µM | 2.5 µM | 8.88 µM | 3.92 µM | 16.1 µM | 1.95 µM | 4.52 µM | 1.43 µM | 2.78 µM |  |  |
| CC[C@@]12CC(C(=O)OC)=C3Nc4ccccc4[C@@]34CCN(C[C@H]3O[C@H]31)[C@@H]24 | 27.5 µM | > 100 µM | 34.4 µM | > 100 µM | > 100 µM | > 100 µM | 78.5 µM | > 100 µM | > 100 µM | > 100 µM | > 100 µM | > 100 µM | 43 µM | > 100 µM | 34.9 µM | > 100 µM |  |  |
| CCc1cccc(CC)c1NC1=CC(=O)C(=O)c2ccccc21 |  | 39.5 µM |  | > 100 µM |  |  |  | 8.39 µM |  | 72.5 µM |  | 76.5 µM |  | 36.6 µM |  | 46.9 µM | 49.7 µM | 48.8 µM |
| C=C(CN1CCc2ccccc2C1)c1ccc(C(=O)Nc2cccc(N)c2)cc1 | 20.5 µM | 45.5 µM | 20.7 µM | 45.5 µM | 19 µM | 44 µM | 13.6 µM | 35.3 µM | 19 µM | 45.9 µM | 18.8 µM | 36.5 µM | 22.3 µM | 57.4 µM | 16 µM | 59.7 µM |  |  |
| N/C(=N\O)c1cn(C2OC(CO)C(O)C2O)c2ncnc(N)c12 (centres undefined) | 0.14 µM | 0.555 µM | 0.131 µM | 0.601 µM | 0.19 µM |  | 0.408 µM | 9.76 µM | 0.105 µM | > 21.5 µM | 0.152 µM | > 36.1 µM | 0.185 µM | > 71.7 µM | 0.229 µM | 13.4 µM |  |  |
| CCN(CC)c1ccc(C=C2C(=O)NC(=S)NC2=O)cc1 | 3.29 µM | 11.3 µM | 2.49 µM | 6.62 µM | 4.18 µM | 13 µM | 3.15 µM | 8.68 µM | 3.83 µM | 13.7 µM | 7.24 µM | 23.1 µM | 2.9 µM | 7.59 µM | 1.62 µM | 3.61 µM |  |  |
